Source: patent US7608577B2, “Peptidyl ketones as inhibitors of DPIV” (OSI Pharmaceuticals, Inc., priority 2001, dated 2009)
Counter-ions that a name gives are not always drawn. Like-named read-outs stand apart in the source and are kept apart here.

Columns and labels:
[1] = target: porcine DPIV (Sus scrofa, UniProt P22411); assay: Determination of IC50 values against DPIV; type: biochemical; conditions: Gly-Pro-pNA 0.4 mM, APN, 30° C.
Protocol: 100 μl inhibitor stock solution was mixed with 100 μl buffer (HEPES pH7.6) and 20 μl diluted porcine DPIV and preincubated at 30° C. Reaction was started by addition of a mixture of 50 μl substrate (Gly-Pro-pNA, final concentration 0.4 mM) and 2 μl APN stock solution. Formation of the product pNA was measured at 405 nm and 30° C. over 10 min using the HTS 7000Plus plate reader (Perkin Elmer) and slopes were calculated. The final inhibitor concentrations ranged between 1 mM and 30 nM. For calculation of IC50 GraFit 4.0.13 (Erithacus Software) was used.

[2] = target: T1, dipeptidyl peptidase IV from porcine kidney (Sus scrofa, UniProt P22411); assay: Ki determination, DPIV inhibition (inhibitor released from prodrug by APN); type: biochemical; conditions: for Ki: porcine kidney DPIV, substrate Gly-Pro-pNA, APN added to release inhibitor, HEPES pH7.6; for T1/2 (half-life, from enzyme activity versus reaction time): same assay as Ki, unstable competitive inhibitor
T1 construct: dipeptidyl peptidase IV from porcine kidney with a specific activity against glycylprolyl-4-nitroaniline of 37.5 U/mg; from tissue; host or cells: porcine kidney
Protocol: 500 μl test compound in a concentration range of 1*10^−5 M-1*10^−11M were admixed with and 500 μl HEPES buffer (40 mM, pH7.6; ion strength=0.125) and 20 μl of diluted DPIV. Release of the inhibitor from the prodrug as well the monitoring reaction (DPIV-catalyzed hydrolysis of Gly-Pro-pNA) were started by addition of a mixture of 10 μl of APN stock solution (4.9 mg/ml, Sigma, Taufkirchen, Germany) with 250 μl of the substrate (Gly-Pro-pNA, 0.05-4 mM). Development of yellow color due to 4-nitroaniline release were monitored at λ=405 nm for up to 180 min using UV1 Spectrometer (ThermoSpectronic).
The Ki-values were calculated by fitting the first derivative of the time-progress curves using Graphit (v.4.0.13, Erithacus Software, Ltd, UK) and an equation for an unstable competitive inhibitor.
The half-life (t1/2) was calculated by plotting the enzyme activity versus reaction time.

[3] = tested on: Wistar rats; assay: Glucose tolerance (OGTT) in Wistar rats under identical experimental conditions; type: in vivo; conditions: 100 mg/kg b.w. oral

Sequence of porcine DPIV (P22411 whole entry): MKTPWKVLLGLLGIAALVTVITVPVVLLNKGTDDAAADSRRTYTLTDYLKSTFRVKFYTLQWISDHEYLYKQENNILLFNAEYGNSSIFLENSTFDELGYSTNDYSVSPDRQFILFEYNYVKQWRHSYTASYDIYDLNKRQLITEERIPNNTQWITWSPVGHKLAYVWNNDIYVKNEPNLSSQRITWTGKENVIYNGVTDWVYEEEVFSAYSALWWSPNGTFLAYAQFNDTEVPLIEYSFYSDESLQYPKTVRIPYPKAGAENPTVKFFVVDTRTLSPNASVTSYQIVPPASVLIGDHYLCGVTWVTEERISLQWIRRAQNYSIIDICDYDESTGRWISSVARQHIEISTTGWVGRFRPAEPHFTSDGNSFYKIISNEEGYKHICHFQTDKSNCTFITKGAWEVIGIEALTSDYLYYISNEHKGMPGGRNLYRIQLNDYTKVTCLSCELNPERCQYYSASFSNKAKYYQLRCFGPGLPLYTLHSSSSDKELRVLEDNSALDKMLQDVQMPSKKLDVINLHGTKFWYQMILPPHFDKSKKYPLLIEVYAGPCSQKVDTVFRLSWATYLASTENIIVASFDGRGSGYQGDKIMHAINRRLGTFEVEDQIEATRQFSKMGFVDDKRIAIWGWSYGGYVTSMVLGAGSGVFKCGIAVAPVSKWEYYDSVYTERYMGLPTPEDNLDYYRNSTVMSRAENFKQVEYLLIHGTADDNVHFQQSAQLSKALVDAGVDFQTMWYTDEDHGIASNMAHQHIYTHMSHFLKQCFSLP
T1 sequence (P22411 whole entry): as above

SMILES	IC50 ([1]; HEPES pH7.6, read-out: IC50) [µM]	Ki ([2]; read-out: Ki) [µM]	T1/2 (half-life, from enzyme activity versus reaction time) [2] [min]	further results
CC(C)[C@H](NC(=O)[C@H](C)N)C(=O)N1CCC[C@H]1C(=O)CSCc1c(Cl)cccc1Cl [2-{[(2,6-Dichlorobenzyl)thiomethyl]carbonyl}-1-N-[{(L)-Alanyl}-(L)-Valinyl]-(2S)-pyrrolidine]	79.7	< 0.1		
C[C@H](N)C(=O)NCC(=O)N1CCC[C@H]1C(=O)c1nc2ccccc2s1.O=C(O)C(F)(F)F [H-Ala-Gly-Pro-CO-Benzothiazole*TFA, 2-[(Benzothiazol-2-yl)carbonyl]-1-N-[{(L)-Alanyl}-Glycyl]-(2S)-pyrrolidine trifluoroacetate]		0.107	5.1	
CC(C)[C@H](NC(=O)[C@H](C)N)C(=O)N1CCC[C@H]1C(=O)c1nc2ccccc2s1.O=C(O)C(F)(F)F [H-Ala-Val-Pro-CO-Benzothiazole*TFA, 2-[(Benzothiazol-2-yl)carbonyl]-1-N-[{(L)-Alanyl}-(L)-Valinyl]-(2S)-pyrrolidine trifluoroacetate]		0.0373	17.0	
Br.CC(C)[C@H](NC(=O)CN)C(=O)N1CCC[C@H]1C(=O)COC(=O)c1ccccc1 [H-Gly-Val-Pro-CO—CH2O—CO—Ph*HBr, 2-[(Benzoyloxy-methyl)carbonyl]-1-N-[Glycyl-(L)-Valinyl]-(2S)-pyrrolidine hydrobromide]	4.94			Ki [2]: no inhibition
Br.CC(=O)[C@@H]1CCCN1C(=O)[C@@H](NC(=O)[C@@H]1CCCN1C(=O)[C@@H](N)C(C)C)C(C)C [H-Val-Pro-Val-Pro-Me*HBr, 2-Methylcarbonyl-1-N-[(L)-Valinyl-(L)-Prolyl-(L)-Valinyl]-(2S)-pyrrolidine hydrobromide]				AUC test compound [3]: 66.4 mmol·min/L; Improvement ([3]; vs AUC control): 44.1%

Now from value to molecule, other results behind:

IC50 ([1]; HEPES pH7.6, read-out: IC50) [µM]	Ki ([2]; read-out: Ki) [µM]	T1/2 (half-life, from enzyme activity versus reaction time) [2] [min]	SMILES	further results
1100			CC(C)[C@H](NC(=O)[C@H](C)N)C(=O)N1CCC[C@H]1C(=O)c1ccccn1 [H-Ala Val-Pro-CO-(2-Pyridinyl)*TFA, 2-[(Pyridin-2-yl)carbonyl]-1-N-[{(L)-Alanyl}-(L)-Valinyl]-(2S)-pyrrolidine trifluoroacetate]	
	0.0332	15.1	CC(C)[C@H](NC(=O)[C@H](C)N)C(=O)N1CCC[C@H]1C(=O)c1nccs1.O=C(O)C(F)(F)F [H-Ala-Val-Pro-CO-Thiazole*TFA, 2-[([1,3]-Thiazol-2-yl)carbonyl]-1-N-[{(L)-Alanyl}-(L)-Valinyl]-(2S)-pyrrolidine trifluoroacetate]	IC50 ([1]; HEPES pH7.6): no inhibition
